According to US7749972B2, “1-substituted-7-(β-D-glycopyranosyloxy)(aza)indole compound and pharmaceutical containing the same” (Kissei Pharmaceutical Co., Ltd., priority 2005, dated 2010):

What was measured:
human SGLT2 = biological target: T1, human SGLT2 (Homo sapiens, UniProt P31639); assay: Inhibition of methyl-α-D-glucopyranoside (α-MG) uptake in COS-7 cells expressing human SGLT2; type: cell-based; settings: COS-7 cells transiently expressing human SGLT2; 1 mM 14C-α-MG uptake, 37° C., 1 hour
T1 construct: expressed in transfected cells; host or cells: COS-7 cells, transient lipofection (Lipofectamine-2000), vector pcDNA3.1(-)
T1 sequence (P31639 1-672): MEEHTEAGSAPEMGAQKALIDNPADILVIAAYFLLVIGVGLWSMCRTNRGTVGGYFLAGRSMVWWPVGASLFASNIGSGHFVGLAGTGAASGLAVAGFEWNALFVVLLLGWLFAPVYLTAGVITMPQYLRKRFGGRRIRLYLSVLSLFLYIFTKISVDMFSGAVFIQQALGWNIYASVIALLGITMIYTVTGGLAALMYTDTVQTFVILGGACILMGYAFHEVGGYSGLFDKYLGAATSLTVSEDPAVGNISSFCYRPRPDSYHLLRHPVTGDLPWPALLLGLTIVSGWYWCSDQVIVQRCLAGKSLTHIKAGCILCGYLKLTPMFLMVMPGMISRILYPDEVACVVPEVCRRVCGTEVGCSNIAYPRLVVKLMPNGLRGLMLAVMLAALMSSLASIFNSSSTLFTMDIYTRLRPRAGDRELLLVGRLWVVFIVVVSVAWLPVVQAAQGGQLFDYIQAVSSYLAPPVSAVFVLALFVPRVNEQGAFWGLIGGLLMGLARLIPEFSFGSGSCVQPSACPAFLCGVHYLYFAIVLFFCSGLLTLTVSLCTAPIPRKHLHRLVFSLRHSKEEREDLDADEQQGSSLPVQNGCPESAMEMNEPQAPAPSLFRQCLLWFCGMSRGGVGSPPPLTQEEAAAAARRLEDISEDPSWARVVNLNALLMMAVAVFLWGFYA
Description: (§1) Assay for Inhibitory Effects on Human SGLT Activity
2) Cloning and Construction of the Vector Expressing Human SGLT2
(§2) The cDNA library was prepared for PCR amplification by reverse transcription from total RNA derived from human kidney (Ori gene) using oligo-dT as a primer. Using this cDNA library as a template, the DNA fragment coding 2 to 2039 bp of human SGLT2 (ACCESSION: M95549, M95299), which was reported by R. G. Wells et al., was amplified by PCR method and inserted into the multi-cloning site of pcDNA3.1(−) (Invitrogen). The DNA sequence inserted was perfectly matched to the previously reported sequence.
(§3) 3) Preparation of the Cells Expressing Human SGLT1 or SGLT2 […]
(§4) A mixture of non-labeled (Sigma) and ^14C-labeled α-MG (Amersham Pharmacia Biotech) was added to the uptake buffer (pH 7.4; containing 140 mM sodium chloride, 2 mM potassium chloride, […] calcium chloride, 1 mM magnesium chloride, 10 mM 2-[4-(2-hydroxyethyl)-1-piperazinyl]ethane sulfonic acid and 5 mM tris(hydroxymethyl)aminomethane) at the final concentration of 1 mM. […] Radioactivity was measured by means of micro-scintillation counter TopCount (Packard). One hundred % was set to the difference between the uptake in the control group and the basal uptake, and the uptake of methyl α-D-glucopyranoside at each drug concentration was calculated. […]

human SGLT1 = biological target: T2, human SGLT1 (Homo sapiens, UniProt P13866); assay: Inhibition of methyl-α-D-glucopyranoside (α-MG) uptake in COS-7 cells expressing human SGLT1; type: cell-based; settings: COS-7 cells transiently expressing human SGLT1; 1 mM 14C-α-MG uptake, 37° C., 1 hour
T2 construct: expressed in transfected cells; host or cells: COS-7 cells, transient lipofection (Lipofectamine-2000), vector pcDNA3.1(-)
T2 sequence (P13866 1-664): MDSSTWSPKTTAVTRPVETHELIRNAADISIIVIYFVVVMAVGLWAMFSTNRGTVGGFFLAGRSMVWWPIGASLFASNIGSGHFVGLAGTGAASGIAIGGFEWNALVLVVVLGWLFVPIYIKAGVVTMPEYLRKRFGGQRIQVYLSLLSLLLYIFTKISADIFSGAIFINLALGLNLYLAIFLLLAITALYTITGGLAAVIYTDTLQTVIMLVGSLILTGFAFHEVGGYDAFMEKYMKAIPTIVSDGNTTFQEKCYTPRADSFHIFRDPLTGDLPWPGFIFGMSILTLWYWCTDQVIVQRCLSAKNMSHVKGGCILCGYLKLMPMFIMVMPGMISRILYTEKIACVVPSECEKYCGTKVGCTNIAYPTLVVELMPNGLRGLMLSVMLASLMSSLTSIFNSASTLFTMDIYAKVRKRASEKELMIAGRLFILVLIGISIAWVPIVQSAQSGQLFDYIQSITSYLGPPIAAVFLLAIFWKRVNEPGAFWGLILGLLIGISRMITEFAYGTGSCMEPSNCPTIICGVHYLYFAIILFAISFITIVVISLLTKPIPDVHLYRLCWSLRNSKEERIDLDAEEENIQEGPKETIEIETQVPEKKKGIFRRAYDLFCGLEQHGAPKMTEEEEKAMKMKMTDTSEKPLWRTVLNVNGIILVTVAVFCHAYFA
Description: as §1
1) Cloning and Construction of the Vector Expressing Human SGLT1
as §2, with “small intestine” for “kidney”, “1” for “2”, “2005” for “2039”, “SGLT1” for “SGLT2”, “M24847),” for “M95549, M95299),”, “Hediger” for “R. G. Wells”
as §3, §4

Row | IC50 (human SGLT2) [nM] | IC50 (human SGLT1) [nM] | Compound
1 | 66 | – | OC[C@H]1O[C@@H](Oc2cccc3ccn(CCc4ccccc4)c23)[C@H](O)[C@@H](O)[C@@H]1O [Example 4]
2 | 16 | 52 | OC[C@H]1O[C@@H](Oc2cccc3ccn(CCc4ccc(O)cc4)c23)[C@H](O)[C@@H](O)[C@@H]1O [Example 7, 7-(β-D-Glucopyranosyloxy)-1-[2-(4-hydroxyphenyl)ethyl]-1H-indole]
3 | – | 235 | Cc1ccc(Cn2ccc3cccc(O[C@@H]4O[C@H](CO)[C@@H](O)[C@H](O)[C@H]4O)c32)cc1 [Example 1, 7-(1-β-Glucopyranosyloxy)-1-(4-methylbenzyl)-1H-indole]
